Measured values as given in patent publication US20220213156A1, “Peptides for use in therapy or prophylaxis of Herpesviridae-infections” (priority 2019, published 2022).
Residues, ends and D or L forms follow the SMILES beside them.

Assays:
[1] = test system: HFF, ARPE-19 and macrophages; experiment: Impedance measurement (xCELLigence) toxicity study; type: cell-based, human; settings: ARPE-19, macrophages, 72 h impedance
Source text: The “xCELLigence” system (ACEA Biosciences Inc.) was used for a more detailed toxicity study. The principle is based on a measurement of the electrical resistance caused by adhesive cells on the bottom of a 96-well plate equipped with microelectrodes. Cell proliferation causes an increase in resistance due to the partial isolation of the electrodes, while events leading to altered cell morphology or cell detachment lead to reduced resistance (Diemert et al. “Impedance measurement for real time detection of neuronal cell death”, J Neurosci Methods, 203(1):69-77, 2012)). The experiments were performed with HFF, ARPE-19 and macrophages, the appropriate cell numbers were determined in a preliminary experiment without treatment with peptides.
On the first day 10 000 HFF or ARPE-19 or 20 000 macrophages per well were sown. […] Then a blank value was measured and the cells were added in corresponding numbers in 150 μl medium each, the final volume was 200 μl per well. The plate was placed in the “xCELLigence” and the impedance was measured at 37° C. and 5% CO2 over 24 h every 30 min. […] Afterwards, the resistance at the bottom of the 96-well plate was measured every 30 min for a further 72 h. The resistance of the tritone was measured with a positive control of 10% tritone. From the measured impedance values, the RTCA software calculated the so-called cell index according to the following formula: […]

[2] = test system: TB40-BACKL7-UL32EGFP-UL 100mCherry; experiment: Attachment of fluorescently tagged viral particles to HFF; type: cell-based, Human Cytomegalovirus; settings: HFF preincubated with peptide 1 h, 6 h after infection, data not shown
Protocol: In additional experiments, […] (encoding for pp150) was GFP (green fluorescence protein)-tagged, UL100 (encoding for gM) was mCherry-tagged. This allowed discrimination between enveloped particles, which were EGFP and mCherry-positive and appeared yellow, and non-enveloped particles, which were only EGFP-positive and appeared green.
HFF were preincubated with peptide in the corresponding concentration 1 h at 37° C. and then infected TB40-BACKL7-UL32EGFP-UL 100mCherry. After 6 h of incubation, cells were fixed and stained with DAPI.

C[C@H](N)C(=O)N[C@H](C(=O)N[C@@H](CS)C(=O)N[C@@H](Cc1ccc(O)cc1)C(=O)N[C@@H](CS)C(=O)N[C@@H](CCCNC(=N)N)C(=O)N[C@H](C(=O)NCC(=O)N[C@@H](CCCNC(=N)N)C(=O)O)[C@@H](C)O)[C@@H](C)O [HD5 (1-9), ATCYCRTGR] (H-ATCYCRTGR-OH; N-terminus and C-terminus assumed)
concentration up to which no cytotoxicity is shown [1]: up to 150 μM | attachment of viral particles [2]: blocks the attachment of viral particles
